What was measured:
[1] = instrument: DT, stepped-field
[2] = [M+H]+; instrument: TW; Major Mix IMS/Tof Calibration Kit (Waters)

## OC[C@H]1O[C@H](O[C@H]2[C@H](O)[C@@H](O)[C@@H](O[C@H]3[C@H](O)[C@@H](O)[C@@H](O[C@H]4[C@H](O)[C@@H](O)[C@@H](O[C@H]5[C@H](O)[C@@H](O)[C@@H](O[C@H]6[C@H](O)[C@@H](O)[C@@H](O)O[C@@H]6CO)O[C@@H]5CO)O[C@@H]4CO)O[C@@H]3CO)O[C@@H]2CO)[C@H](O)[C@@H](O)[C@@H]1O [Maltohexaose]
[1]; [M+K]+
  collision cross section (N2): 293.3 Å²
[1]; [M+Na]+
  collision cross section (N2): 286.4 Å²

## CN1C(=O)C(O)N=C(c2ccccc2)c2cc(Cl)ccc21 (configuration not stated) [Temazepam]
[2]
  collision cross section (N2): 166.1 Å²

## CN1C(C(=O)Nc2ccccn2)=C(O)c2sccc2S1(=O)=O [Tenoxicam]
[2]
  collision cross section (N2): 170.4 Å²

## CC(C)(C)NCC(O)c1cc(O)cc(O)c1 (configuration not stated) [Terbutaline]
[2]
  collision cross section (N2): 154.9 Å²

## COc1cc2c(cc1OC)C1CC(=O)C(CC(C)C)CN1CC2 (configuration not stated) [Tetrabenazine]
[2]
  collision cross section (N2): 182.6 Å²

## COc1ccc2c3c1O[C@H]1C(OC(C)=O)=CC[C@H]4[C@@H](C2)N(C)CC[C@]314 [Thebacon]
[2]
  collision cross section (N2): 178.2 Å²

## Clc1ccc2nsnc2c1NC1=NCCN1 [Tizanidine]
[2]
  collision cross section (N2): 149.4 Å²

## CCCCNC(=O)NS(=O)(=O)c1ccc(C)cc1 [Tolbutamide]
[2]
  collision cross section (N2): 163 Å²

## Cc1ccc(O)c([C@H](CCN(C(C)C)C(C)C)c2ccccc2)c1 [Tolterodine]
[2]
  collision cross section (N2): 182.1 Å²

## CN(C)CC1CCCCC1(O)c1cccc(O)c1 (configuration not stated) [Tramadol-M O-desmethyl]
[2]
  collision cross section (N2): 157.4 Å²

## COc1cccc([C@@]2(O)CCCC[C@@H]2CN(C)C)c1 [Tramadol]
[2]
  collision cross section (N2): 161.4 Å²

## CCOC(=O)[C@H](CCc1ccccc1)N[C@@H](C)C(=O)N1[C@H](C(=O)O)C[C@H]2CCCC[C@@H]21 [Trandolapril]
[2]
  collision cross section (N2): 203.5 Å²

## NC1CC1c1ccccc1 (configuration not stated) [Tranylcypromine]
[2]
  collision cross section (N2): 127.6 Å²

## Cc1nnc2n1-c1ccc(Cl)cc1C(c1ccccc1Cl)=NC2 [Triazolam]
[2]
  collision cross section (N2): 172.4 Å²

## CC(C)(C)NCC(O)c1ccccc1Cl (configuration not stated) [Tulobuterol]
[2]
  collision cross section (N2): 150.5 Å²

## CCCc1nc(C)c2c(=O)nc(-c3cc(S(=O)(=O)N4CCN(CC)CC4)ccc3OCC)[nH]n12 [Vardenafil]
[2]
  collision cross section (N2): 225.8 Å²

## COc1ccc(C(CN(C)C)C2(O)CCCCC2)cc1 (configuration not stated) [Venlafaxine]
[2]
  collision cross section (N2): 171.6 Å²

## COc1ccc(CCN(C)CCCC(C#N)(c2ccc(OC)c(OC)c2)C(C)C)cc1OC (configuration not stated) [Verapamil]
[2]
  collision cross section (N2): 210.2 Å²

## CC(=O)CC(c1ccccc1)c1c(O)c2ccccc2oc1=O (configuration not stated) [Warfarin]
[2]
  collision cross section (N2): 166.8 Å²

## CCN(C(C)=O)c1cccc(-c2ccnc3c(C#N)cnn23)c1 [Zaleplon]
[2]
  collision cross section (N2): 173.5 Å²

## Cc1nn(C)c2c1C(c1ccccc1F)=NCC(=O)N2C [Zolazepam]
[2]
  collision cross section (N2): 162.3 Å²

## CN(C)CCc1c[nH]c2ccc(C[C@H]3COC(=O)N3)cc12 [Zolmitriptan]
[2]
  collision cross section (N2): 160.6 Å²

## Cc1ccc(-c2nc3ccc(C(=O)O)cn3c2CC(=O)N(C)C)cc1 [Zolpidem-M 2]
[2]
  collision cross section (N2): 181.4 Å²

## Cc1ccc(-c2nc3ccc(C)cn3c2CC(=O)N(C)C)cc1 [Zolpidem]
[2]
  collision cross section (N2): 177.2 Å²

## OCCN1CCN(CC/C=C2/c3ccccc3Sc3ccc(Cl)cc32)CC1 [Zuclopenthixol]
[2]
  collision cross section (N2): 194 Å²

## Clc1cccc(N2CCNCC2)c1 [mCPP]
[2]
  collision cross section (N2): 144.3 Å²

Source: the C3SDB collision cross section collection
